Test results: ChEMBL document CHEMBL3992482 (Medchemcomm, 2016)
Active and inactive are the calls of the source. The rule behind the calls is not given here.

How the values were obtained:
MCF7 = test: Cytotoxicity against human MCF7 cells assessed as reduction in cell viability after 48 hrs by MTT assay; type: functional, cell-based; conditions: MCF7, 48 h
HeLa [1] = test: Cytotoxicity against human HeLa cells assessed as reduction in cell viability after 48 hrs by MTT assay; type: functional, cell-based
A549 = test: Cytotoxicity against human A549 cells assessed as reduction in cell viability after 48 hrs by MTT assay; type: functional, cell-based; conditions: A549, 48 h
HeLa [2] = test: Induction of apoptosis in human HeLa cells assessed as live cells at 10 uM after 24 hrs by Annexin-V FITC/propidium iodide staining based flow cytometry (reference value: 95.5%); type: functional
HeLa [3] = test: Induction of apoptosis in human HeLa cells after 24 hrs by Annexin-V FITC/propidium iodide staining based flow cytometry; type: functional, cell-based
HeLa [4] = test: Induction of apoptosis in human HeLa cells assessed as early apoptotic cells at 5 uM after 24 hrs by Annexin-V FITC/propidium iodide staining based flow cytometry (reference value: 2.36%); type: functional
HeLa [5] = test: Cell cycle arrest in human HeLa cells assessed as accumulation at S phase at 10 uM after 24 hrs by propidium iodide staining based flow cytometry (reference value: 23.69%); type: functional
HeLa [6] = test: Induction of apoptosis in human HeLa cells assessed as crescent shaped cell masses at 5 to 10 uM after 24 hrs by […] staining based fluorescence microscopic method; type: functional
HeLa [7] = test: Induction of apoptosis in human HeLa cells assessed as live cells at 5 uM after 24 hrs by Annexin-V FITC/propidium iodide staining based flow cytometry (reference value: 95.5%); type: functional
HeLa [8] = test: Induction of apoptosis in human HeLa cells assessed as necrotic cells at 10 uM after 24 hrs by Annexin-V FITC/propidium iodide staining based flow cytometry (reference value: 1.81%); type: functional
HeLa [9] = test: Induction of apoptosis in human HeLa cells assessed as late apoptotic cells at 5 uM after 24 hrs by Annexin-V FITC/propidium iodide staining based flow cytometry (reference value: 0.29%); type: functional
HeLa [10] = test: Induction of apoptosis in human HeLa cells assessed as early apoptotic cells at 10 uM after 24 hrs by Annexin-V FITC/propidium iodide staining based flow cytometry (reference value: 2.36%); type: functional
HeLa [11] = test: Induction of apoptosis in human HeLa cells assessed as late apoptotic cells at 10 uM after 24 hrs by Annexin-V FITC/propidium iodide staining based flow cytometry (reference value: 0.29%); type: functional
HeLa [12] = test: Cell cycle arrest in human HeLa cells assessed as accumulation at S phase after 24 hrs by propidium iodide staining based flow cytometry; type: functional
HeLa [13] = test: Induction of apoptosis in human HeLa cells assessed as ring shaped cell masses at 5 to 10 uM after 24 hrs by […] staining based fluorescence microscopic method; type: functional
HeLa [14] = test: Induction of apoptosis in human HeLa cells assessed as nuclear fragmentation after 24 hrs by acridine orange/ethidium bromide staining based fluorescence confocal microscopic method; type: functional, cell-based
HeLa [15] = test: Cell cycle arrest in human HeLa cells assessed as accumulation at G1 phase at 5 uM after 24 hrs by propidium iodide staining based flow cytometry (reference value: 66.42%); type: functional
HeLa [16] = test: Induction of apoptosis in human HeLa cells assessed as chromatin condensation after 24 hrs by acridine orange/ethidium bromide staining based fluorescence confocal microscopic method; type: functional, cell-based
HeLa [17] = test: Cell cycle arrest in human HeLa cells assessed as accumulation at G1 phase at 10 uM after 24 hrs by propidium iodide staining based flow cytometry (reference value: 66.42%); type: functional
HeLa [18] = test: Induction of apoptosis in human HeLa cells assessed as necrotic cells at 5 uM after 24 hrs by Annexin-V FITC/propidium iodide staining based flow cytometry (reference value: 1.81%); type: functional
HeLa [19] = test: Cell cycle arrest in human HeLa cells assessed as accumulation at S phase at 5 uM after 24 hrs by propidium iodide staining based flow cytometry (reference value: 23.69%); type: functional
HeLa [20] = test: Cell cycle arrest in human HeLa cells assessed as accumulation at G2/M phase at 5 uM after 24 hrs by propidium iodide staining based flow cytometry (reference value: 9.89%); type: functional
HeLa [21] = test: Cell cycle arrest in human HeLa cells assessed as accumulation at G2/M phase at 10 uM after 24 hrs by propidium iodide staining based flow cytometry (reference value: 9.89%); type: functional

SMILES | IC50 (MCF7) [µM] | IC50 (HeLa [1]) [µM] | IC50 (A549) [µM] | further results
Cc1cccc(C)c1Nc1nc(C(C)(C)C)c(Cc2ccc3c(c2)OCO3)s1 | 20.1 | 83.5 | 15.9 | 
Cc1ccc(Nc2nc(C(C)(C)C)c(Cc3ccc4c(c3)OCO4)s2)cc1C | 20.4 | 20.7 | 12.2 | 
CC(C)(C)c1nc(Nc2ccc(Br)cc2)sc1Cc1ccc2c(c1)OCO2 | 4.71 | 13.3 | 10.1 | 
CC(C)(C)c1nc(Nc2ccc(C(F)(F)F)cc2)sc1Cc1ccc2c(c1)OCO2 | 3.54 | 10.4 | 9.22 | 
CC(C)(C)c1nc(Nc2ccc([N+](=O)[O-])cc2Cl)sc1Cc1ccc2c(c1)OCO2 | 76.5 | 51.7 | 80.9 | 
CC(=O)O[C@H]1C(=O)[C@@]2(C)[C@H]([C@H](OC(=O)c3ccccc3)[C@]3(O)C[C@H](OC(=O)[C@H](O)[C@@H](NC(=O)c4ccccc4)c4ccccc4)C(C)=C1C3(C)C)[C@]1(OC(C)=O)CO[C@@H]1C[C@@H]2O [PACLITAXEL] | 14 | 19.3 | 21 | 
CC(C)(C)c1nc(Nc2ccccn2)sc1Cc1ccc2c(c1)OCO2 | 4.71 | 4.79 | 5.13 | 
Cc1ccc2cccc(Nc3nc(C(C)(C)C)c(Cc4ccc5c(c4)OCO5)s3)c2n1 | > 200 | 65.1 | 55.5 | 
CC(C)(C)c1nc(Nc2cccc(Br)c2)sc1Cc1ccc2c(c1)OCO2 | 4.66 | 6.43 | 5 | 
CC(C)(C)c1nc(Nc2cccc(C(F)(F)F)c2)sc1Cc1ccc2c(c1)OCO2 | 3.32 | 13 | 15.8 | 
CC(C)(C)c1nc(Nc2ccc(F)c(Cl)c2)sc1Cc1ccc2c(c1)OCO2 | 8.66 | 4.6 | 16.3 | Activity (HeLa [2]): 75.2%; Activity (HeLa [3]): Dose-dependent effect; Activity (HeLa [4]): 11.7%; Activity (HeLa [5]): 36.63%; Activity (HeLa [6]): Active; Activity (HeLa [7]): 86.1%; Activity (HeLa [8]): 0.94%; Activity (HeLa [9]): 1.58%; Activity (HeLa [10]): 19.5%; Activity (HeLa [11]): 4.39%; Activity (HeLa [12]): Dose-dependent effect; Activity (HeLa [13]): Active; Activity (HeLa [14]): Dose-dependent effect; Activity (HeLa [15]): 60.8%; Activity (HeLa [16]): Dose-dependent effect; Activity (HeLa [17]): 53.81%; Activity (HeLa [18]): 0.61%; Activity (HeLa [19]): 28.69%; Activity (HeLa [20]): 10.51%; Activity (HeLa [21]): 9.56%
CC(C)(C)c1nc(Nc2cc(Cl)cc(Cl)c2)sc1Cc1ccc2c(c1)OCO2 | 17.7 | 5.8 | 17 | 
CCOC(=O)c1ccc(Nc2nc(C(C)(C)C)c(Cc3ccc4c(c3)OCO4)s2)cc1 | 5.95 | 47.5 | 8.51 | 
Cc1cccc(Nc2nc(C(C)(C)C)c(Cc3ccc4c(c3)OCO4)s2)c1 | 4.91 | 18.8 | 12.7 | 
CC(C)(C)c1nc(Nc2cc(C(F)(F)F)cc(C(F)(F)F)c2)sc1Cc1ccc2c(c1)OCO2 | 9.03 | 2.07 | 3.52 | Activity (HeLa [2]): 35.1%; Activity (HeLa [3]): Dose-dependent effect; Activity (HeLa [4]): 19.2%; Activity (HeLa [5]): 35.93%; Activity (HeLa [6]): Active; Activity (HeLa [7]): 77.8%; Activity (HeLa [8]): 0.23%; Activity (HeLa [9]): 2.27%; Activity (HeLa [10]): 62.7%; Activity (HeLa [11]): 1.94%; Activity (HeLa [12]): Dose-dependent effect; Activity (HeLa [13]): Active; Activity (HeLa [14]): Dose-dependent effect; Activity (HeLa [15]): 56.87%; Activity (HeLa [16]): Dose-dependent effect; Activity (HeLa [17]): 46.14%; Activity (HeLa [18]): 0.69%; Activity (HeLa [19]): 27.1%; Activity (HeLa [20]): 16.03%; Activity (HeLa [21]): 17.93%
CC(C)(C)c1nc(Nc2ccccc2[N+](=O)[O-])sc1Cc1ccc2c(c1)OCO2 | > 200 | 194 | 82.8 | 
CC(C)(C)c1nc(Nc2ccc(Cl)c(Cl)c2)sc1Cc1ccc2c(c1)OCO2 | 11.2 | 7.83 | 11.5 | 

SMILES | IC50 (MCF7) [µM] | IC50 (HeLa [1]) [µM] | IC50 (A549) [µM] | further results
CC(C)(C)c1nc(Nc2ccccc2Cl)sc1Cc1ccc2c(c1)OCO2 | 8.99 | 18.9 | 6.84 | 
CC(C)(C)c1nc(Nc2cccc(Cl)c2)sc1Cc1ccc2c(c1)OCO2 | 3 | 8.27 | 2.06 | 
CC(C)(C)c1nc(Nc2cccc3ccccc23)sc1Cc1ccc2c(c1)OCO2 | 22.3 | 14.1 | 55.2 | 
CC(C)(C)c1nc(Nc2cccc(Cl)c2Cl)sc1Cc1ccc2c(c1)OCO2 | 19.4 | 34.6 | 14.2 | 
CC(C)(C)c1nc(Nc2ccc(F)cc2)sc1Cc1ccc2c(c1)OCO2 | 15 | 25.3 | 5.81 | 
CC(C)(C)c1nc(Nc2ccccc2)sc1Cc1ccc2c(c1)OCO2 | 11.6 | 12 | 20.4 | 
CC(C)(C)c1nc(Nc2ccc(Cl)cc2)sc1Cc1ccc2c(c1)OCO2 | 3.48 | 11 | 9.19 | 
Cc1ccccc1Nc1nc(C(C)(C)C)c(Cc2ccc3c(c2)OCO3)s1 | 19.1 | 24.8 | 18.7 | 
CC(C)(C)c1nc(Nc2ccccc2Br)sc1Cc1ccc2c(c1)OCO2 | 39.9 | 52 | 26.1 | 
CC(C)(C)c1nc(Nc2ccc([N+](=O)[O-])cc2)sc1Cc1ccc2c(c1)OCO2 | 2.55 | 4.15 | 8.26 | 
CC(C)(C)c1nc(Nc2ccc([N+](=O)[O-])cc2F)sc1Cc1ccc2c(c1)OCO2 | 33.3 | 19.3 | 67.2 | 
CC(C)(C)c1nc(Nc2c(Br)cc(OC(F)(F)F)cc2Br)sc1Cc1ccc2c(c1)OCO2 | 103 | 53.3 | 103 | 
CC(C)(C)c1nc(Nc2ccccc2F)sc1Cc1ccc2c(c1)OCO2 | 4.49 | 18.3 | 7.57 | 
COc1ccc(Nc2nc(C(C)(C)C)c(Cc3ccc4c(c3)OCO4)s2)cc1 | 9.36 | 11.7 | 10.1 | 
Cc1ccc(Nc2nc(C(C)(C)C)c(Cc3ccc4c(c3)OCO4)s2)c(C)c1 | 18.7 | 18.9 | 11.3 | 
O=c1[nH]cc(F)c(=O)[nH]1 [FLUOROURACIL] | 79.3 | 56.5 | 26 | 
